In the supplement of paper PMC10307832:

Experiments:
Assay in all cases: relative viability (nuclei count vs DMSO), 5 days (fraction); higher = more cells survive
Carboplatin + Foretinib = compound: C1CC(C1)(C(=O)O)C(=O)O.[NH2-].[NH2-].[Pt+2] [Carboplatin] + COc1cc2c(Oc3ccc(NC(=O)C4(C(=O)Nc5ccc(F)cc5)CC4)cc3F)ccnc2cc1OCCCN1CCOCC1 [Foretinib] (partner 0.25 µM)
How it was run: (§1)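 A single step with final 0.05% Triton X-100, 1% formaldehyde and 1 ug/ml Hoechst fixed the cells and stained nuclei 5 days after treatment. Lung cancer cell lines in 1536-well plates had been treated by pin tool the day after seeding with one drug alone or a fixed anchor-drug dose plus five library-drug doses (not always all listed) in √10 steps, and nuclei were counted on 4× images. Relative viability is the ratio of nuclei in treated wells to nuclei in vehicle wells, taken as the median of duplicate plates.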

GSK126 + Pemetrexed = compound: CC[C@H](C)N1C=C(C2=C(C=C(C=C21)C3=CN=C(C=C3)N4CCNCC4)C(=O)NCC5=C(C=C(NC5=O)C)C)C [GSK126] + Nc1nc2[nH]cc(CCc3ccc(C(=O)N[C@@H](CCC(=O)O)C(=O)O)cc3)c2c(=O)[nH]1 [Pemetrexed] (partner 0.2 µM)
How it was run: as §1

MLN4924 + Tozasertib = compound: NS(=O)(=O)OC[C@@H]1C[C@@H](n2ccc3c(N[C@H]4CCc5ccccc54)ncnc32)C[C@@H]1O [MLN4924] + Cc1cc(Nc2cc(N3CCN(C)CC3)nc(Sc3ccc(NC(=O)C4CC4)cc3)n2)n[nH]1 [Tozasertib] (partner 0.1 µM)
How it was run: as §1

MLN4924 + Decitabine = compound: NS(=O)(=O)OC[C@@H]1C[C@@H](n2ccc3c(N[C@H]4CCc5ccccc54)ncnc32)C[C@@H]1O [MLN4924] + Nc1ncn([C@H]2C[C@H](O)[C@@H](CO)O2)c(=O)n1 [Decitabine] (partner 2 µM)
How it was run: as §1

Cell Line NCI-H1650 has a relative viability (Carboplatin + Foretinib; first compound 0.08 µM) of 1.51, a relative viability (Carboplatin + Foretinib; first compound 0.253 µM) of 1.25 and a relative viability (Carboplatin + Foretinib; first compound 0.8 µM) of 0.986. For the same cell line, the relative viability (Carboplatin + Foretinib; first compound 2.53 µM) was 0.982, the relative viability (Carboplatin + Foretinib; first compound 8 µM) was 0.779 and the relative viability (GSK126 + Pemetrexed; first compound 0.08 µM) was 0.393. The relative viability (GSK126 + Pemetrexed; first compound 0.253 µM) was 0.437, the relative viability (GSK126 + Pemetrexed; first compound 0.8 µM) was 0.39 and the relative viability (GSK126 + Pemetrexed; first compound 2.53 µM) was 0.302. For the same cell line, the relative viability (GSK126 + Pemetrexed; first compound 8 µM) was 0.344, the relative viability (MLN4924 + Tozasertib; first compound 0.04 µM) was 0.319 and the relative viability (MLN4924 + Tozasertib; first compound 0.1265 µM) was 0.299. It also gave a relative viability (MLN4924 + Tozasertib; first compound 0.4 µM) of 0.341, a relative viability (MLN4924 + Tozasertib; first compound 1.265 µM) of 0.203 and a relative viability (MLN4924 + Tozasertib; first compound 4 µM) of 0.164. It also gave a relative viability (MLN4924 + Decitabine; first compound 0.04 µM) of 0.371, a relative viability (MLN4924 + Decitabine; first compound 0.1265 µM) of 0.388 and a relative viability (MLN4924 + Decitabine; first compound 0.4 µM) of 0.252. It also gave a relative viability (MLN4924 + Decitabine; first compound 1.265 µM) of 0.175 and a relative viability (MLN4924 + Decitabine; first compound 4 µM) of 0.193.
SW 900 was tested, and the relative viability (Carboplatin + Foretinib; first compound 0.08 µM) was 1.08, the relative viability (Carboplatin + Foretinib; first compound 0.253 µM) was 0.789 and the relative viability (Carboplatin + Foretinib; first compound 0.8 µM) was 0.677. The relative viability (Carboplatin + Foretinib; first compound 2.53 µM) was 0.769, the relative viability (Carboplatin + Foretinib; first compound 8 µM) was 0.682 and the relative viability (GSK126 + Pemetrexed; first compound 0.08 µM) was 0.498. It also gave a relative viability (GSK126 + Pemetrexed; first compound 0.253 µM) of 0.45, a relative viability (GSK126 + Pemetrexed; first compound 0.8 µM) of 0.463 and a relative viability (GSK126 + Pemetrexed; first compound 2.53 µM) of 0.46. For the same cell line, the relative viability (GSK126 + Pemetrexed; first compound 8 µM) was 0.493, the relative viability (MLN4924 + Tozasertib; first compound 0.04 µM) was 0.625 and the relative viability (MLN4924 + Tozasertib; first compound 0.1265 µM) was 0.474. The relative viability (MLN4924 + Tozasertib; first compound 0.4 µM) was 0.435, the relative viability (MLN4924 + Tozasertib; first compound 1.265 µM) was 0.171 and the relative viability (MLN4924 + Tozasertib; first compound 4 µM) was 0.114. For the same cell line, the relative viability (MLN4924 + Decitabine; first compound 0.1265 µM) was 0.427, the relative viability (MLN4924 + Decitabine; first compound 0.4 µM) was 0.344 and the relative viability (MLN4924 + Decitabine; first compound 1.265 µM) was 0.27. It also gave a relative viability (MLN4924 + Decitabine; first compound 4 µM) of 0.211.
NCI-H1355 showed a relative viability (Carboplatin + Foretinib; first compound 0.08 µM) of 0.979, a relative viability (Carboplatin + Foretinib; first compound 0.253 µM) of 0.994 and a relative viability (Carboplatin + Foretinib; first compound 0.8 µM) of 1.02. It also gave a relative viability (Carboplatin + Foretinib; first compound 2.53 µM) of 0.956, a relative viability (Carboplatin + Foretinib; first compound 8 µM) of 0.895 and a relative viability (GSK126 + Pemetrexed; first compound 0.08 µM) of 1.15. For the same cell line, the relative viability (GSK126 + Pemetrexed; first compound 0.253 µM) was 1.12, the relative viability (GSK126 + Pemetrexed; first compound 0.8 µM) was 0.996 and the relative viability (GSK126 + Pemetrexed; first compound 2.53 µM) was 1.03. The relative viability (GSK126 + Pemetrexed; first compound 8 µM) was 1.06, the relative viability (MLN4924 + Tozasertib; first compound 0.04 µM) was 0.549 and the relative viability (MLN4924 + Tozasertib; first compound 0.1265 µM) was 0.553. The relative viability (MLN4924 + Tozasertib; first compound 0.4 µM) was 0.576, the relative viability (MLN4924 + Tozasertib; first compound 1.265 µM) was 0.3 and the relative viability (MLN4924 + Tozasertib; first compound 4 µM) was 0.204. For the same cell line, the relative viability (MLN4924 + Decitabine; first compound 0.04 µM) was 0.367, the relative viability (MLN4924 + Decitabine; first compound 0.1265 µM) was 0.307 and the relative viability (MLN4924 + Decitabine; first compound 0.4 µM) was 0.321. The relative viability (MLN4924 + Decitabine; first compound 1.265 µM) was 0.215 and the relative viability (MLN4924 + Decitabine; first compound 4 µM) was 0.184.
For NCI-H2342, the relative viability (Carboplatin + Foretinib; first compound 0.08 µM) was 0.949, the relative viability (Carboplatin + Foretinib; first compound 0.253 µM) was 0.961 and the relative viability (Carboplatin + Foretinib; first compound 0.8 µM) was 0.993. The relative viability (Carboplatin + Foretinib; first compound 2.53 µM) was 0.865, the relative viability (Carboplatin + Foretinib; first compound 8 µM) was 0.785 and the relative viability (GSK126 + Pemetrexed; first compound 0.08 µM) was 0.851. It also gave a relative viability (GSK126 + Pemetrexed; first compound 0.253 µM) of 0.762, a relative viability (GSK126 + Pemetrexed; first compound 0.8 µM) of 0.744 and a relative viability (GSK126 + Pemetrexed; first compound 2.53 µM) of 0.879. The relative viability (GSK126 + Pemetrexed; first compound 8 µM) was 0.881, the relative viability (MLN4924 + Tozasertib; first compound 0.04 µM) was 0.416 and the relative viability (MLN4924 + Tozasertib; first compound 0.1265 µM) was 0.455. The relative viability (MLN4924 + Tozasertib; first compound 0.4 µM) was 0.533, the relative viability (MLN4924 + Tozasertib; first compound 1.265 µM) was 0.445 and the relative viability (MLN4924 + Tozasertib; first compound 4 µM) was 0.408. The relative viability (MLN4924 + Decitabine; first compound 0.04 µM) was 0.695, the relative viability (MLN4924 + Decitabine; first compound 0.1265 µM) was 0.75 and the relative viability (MLN4924 + Decitabine; first compound 0.4 µM) was 0.718. It also gave a relative viability (MLN4924 + Decitabine; first compound 1.265 µM) of 0.643 and a relative viability (MLN4924 + Decitabine; first compound 4 µM) of 0.468.
With NCI-H1734 the relative viability (Carboplatin + Foretinib; first compound 0.08 µM) was 0.777, the relative viability (Carboplatin + Foretinib; first compound 0.253 µM) was 0.877 and the relative viability (Carboplatin + Foretinib; first compound 0.8 µM) was 0.827. The relative viability (Carboplatin + Foretinib; first compound 2.53 µM) was 0.954, the relative viability (Carboplatin + Foretinib; first compound 8 µM) was 0.812 and the relative viability (GSK126 + Pemetrexed; first compound 0.08 µM) was 0.406. The relative viability (GSK126 + Pemetrexed; first compound 0.253 µM) was 0.411, the relative viability (GSK126 + Pemetrexed; first compound 0.8 µM) was 0.463 and the relative viability (GSK126 + Pemetrexed; first compound 2.53 µM) was 0.448. The relative viability (GSK126 + Pemetrexed; first compound 8 µM) was 0.461, the relative viability (MLN4924 + Tozasertib; first compound 0.04 µM) was 0.261 and the relative viability (MLN4924 + Tozasertib; first compound 0.1265 µM) was 0.267. It also gave a relative viability (MLN4924 + Tozasertib; first compound 0.4 µM) of 0.154, a relative viability (MLN4924 + Tozasertib; first compound 1.265 µM) of 0.12 and a relative viability (MLN4924 + Tozasertib; first compound 4 µM) of 0.0994. For the same cell line, the relative viability (MLN4924 + Decitabine; first compound 0.04 µM) was 0.514, the relative viability (MLN4924 + Decitabine; first compound 0.1265 µM) was 0.472 and the relative viability (MLN4924 + Decitabine; first compound 0.4 µM) was 0.197. It also gave a relative viability (MLN4924 + Decitabine; first compound 1.265 µM) of 0.141 and a relative viability (MLN4924 + Decitabine; first compound 4 µM) of 0.135.
In the case of LXF-289, the relative viability (Carboplatin + Foretinib; first compound 0.08 µM) is reported as 1.02, the relative viability (Carboplatin + Foretinib; first compound 0.253 µM) is reported as 0.996 and the relative viability (Carboplatin + Foretinib; first compound 0.8 µM) is reported as 0.992. It also gave a relative viability (Carboplatin + Foretinib; first compound 2.53 µM) of 0.918, a relative viability (Carboplatin + Foretinib; first compound 8 µM) of 0.992 and a relative viability (GSK126 + Pemetrexed; first compound 0.08 µM) of 0.894. The relative viability (GSK126 + Pemetrexed; first compound 0.253 µM) was 0.945, the relative viability (GSK126 + Pemetrexed; first compound 0.8 µM) was 0.933 and the relative viability (GSK126 + Pemetrexed; first compound 2.53 µM) was 0.908. For the same cell line, the relative viability (GSK126 + Pemetrexed; first compound 8 µM) was 0.884, the relative viability (MLN4924 + Tozasertib; first compound 0.04 µM) was 0.194 and the relative viability (MLN4924 + Tozasertib; first compound 0.1265 µM) was 0.162. The relative viability (MLN4924 + Tozasertib; first compound 0.4 µM) was 0.155, the relative viability (MLN4924 + Tozasertib; first compound 1.265 µM) was 0.083 and the relative viability (MLN4924 + Tozasertib; first compound 4 µM) was 0.0804. It also gave a relative viability (MLN4924 + Decitabine; first compound 0.04 µM) of 0.346, a relative viability (MLN4924 + Decitabine; first compound 0.1265 µM) of 0.323 and a relative viability (MLN4924 + Decitabine; first compound 0.4 µM) of 0.28. For the same cell line, the relative viability (MLN4924 + Decitabine; first compound 1.265 µM) was 0.183 and the relative viability (MLN4924 + Decitabine; first compound 4 µM) was 0.133.
For RERF-LC-KJ, the relative viability (Carboplatin + Foretinib; first compound 0.08 µM) was 0.933, the relative viability (Carboplatin + Foretinib; first compound 0.253 µM) was 0.874 and the relative viability (Carboplatin + Foretinib; first compound 0.8 µM) was 0.956. The relative viability (Carboplatin + Foretinib; first compound 2.53 µM) was 0.772, the relative viability (Carboplatin + Foretinib; first compound 8 µM) was 0.713 and the relative viability (GSK126 + Pemetrexed; first compound 0.08 µM) was 0.462. For the same cell line, the relative viability (GSK126 + Pemetrexed; first compound 0.253 µM) was 0.465, the relative viability (GSK126 + Pemetrexed; first compound 0.8 µM) was 0.443 and the relative viability (GSK126 + Pemetrexed; first compound 2.53 µM) was 0.462. It also gave a relative viability (GSK126 + Pemetrexed; first compound 8 µM) of 0.461, a relative viability (MLN4924 + Tozasertib; first compound 0.04 µM) of 0.471 and a relative viability (MLN4924 + Tozasertib; first compound 0.1265 µM) of 0.366. The relative viability (MLN4924 + Tozasertib; first compound 0.4 µM) was 0.193, the relative viability (MLN4924 + Tozasertib; first compound 1.265 µM) was 0.202 and the relative viability (MLN4924 + Tozasertib; first compound 4 µM) was 0.201. For the same cell line, the relative viability (MLN4924 + Decitabine; first compound 0.04 µM) was 0.592, the relative viability (MLN4924 + Decitabine; first compound 0.1265 µM) was 0.497 and the relative viability (MLN4924 + Decitabine; first compound 0.4 µM) was 0.24. For the same cell line, the relative viability (MLN4924 + Decitabine; first compound 1.265 µM) was 0.182 and the relative viability (MLN4924 + Decitabine; first compound 4 µM) was 0.236.
